Drawing on patent US20240300923A1, “IRAK4 Inhibitors” (ASTRAZENECA AB, priority 2022, published 2024), this text covers IC50 for 15 compounds.

Experiment [1] has as its target T1, IRAK4 (Homo sapiens (Human), UniProt Q9NWZ3). Description: IRAK4 enzyme assay (mass spectrometry readout). Format: biochemical. As to conditions: human recombinant IRAK4 0.2 nM, 3 mM ATP; geometric mean of at least 2 experiments. The method, then:
Potency of IRAK4 Inhibitor Compounds in IRAK4 Enzyme Assay
The inhibitory activity of compounds against IRAK4 were determined in an enzymatic assay using mass spectrometry readout. Ten point half-log compound concentration response curves, with a top concentration of 1 μM or 10 μM, were generated from 10 mM stocks of compound solubilized in DMSO using an Echo 655 (Labcyte Inc) and added to 384 well assay plates (Greiner #781280). To the assay plates, 10 μL of human recombinant IRAK4 protein (Life Technologies #PV4002) diluted to a final concentration of 0.2 nM in assay buffer (50 mM Tris-HCl pH 7.4, 10 mM MgCl, 5 mM glutathione, 0.01% BSA, 3 mM ATP) was added. The enzyme was incubated with the compounds at room temperature for 15 minutes before a peptide substrate ([…], Innovagen custom synthesis, 10 mM in DMSO) was added to each well to a final concentration of 10 μM using an Echo 655 (Labcyte Inc). After two hours at room temperature, the reaction was stopped with 65 μL of 0.4% formic acid (Merck #33015). The unphosphorylated and phosphorylated peptide were measured by LC-MS/MS on a Waters TQ-S mass spectrometer. Peaks were integrated using the TargetLynx software and the ratios between phosphorylated and unphosphorylated peptides were calculated. Curves were fitted and compound potencies determined in Genedata Screener 19 (Genedata AG). IC50 values are the geometric mean of at least 2 experiments.

Experiment [2] deals with T1, IRAK4. Description: IRAK4 phosphorylation cell assay (IL-1β-stimulated Karpas-299 cells). The experiment is classed as cell-based. Conditions: IRAK4 auto-phosphorylation (pIRAK4 Thr345/Ser346) in IL-1β-stimulated Karpas-299 cells; geometric mean of at least 2 experiments. The method, then:
IRAK4 Phosphorylation Cell Assay
The activation of IRAK4 by TLR or IL-1R ligands leads to IRAK4 auto-phosphorylation, which can be prevented by IRAK4 kinase inhibitors. The effect of IRAK4 inhibitor compounds on IRAK4 auto-phosphorylation was assessed in IL-1β-stimulated Karpas-299 cells as a measurement of cellular potency. Karpas-299 cells were cultured in RPMI 1640 (Gibco 61870-010) containing 10% FBS (Gibco #10270). Cells were plated at 2×10^4 cells per well in poly-D-lysine coated 384 well plates (Corning #356663) to which compounds had been added at various concentrations (10 point half log dose response with a final top concentration of 30 μM) using an Echo 655 (Labcyte Inc). Cells were centrifuged (250 g, 4 mins), incubated at 37° C. for 1 h, then stimulated with 22.7 ng/mL recombinant IL-1β (R&D Systems, #201-LB-025) at 37° C. for 10 mins, followed by fixation in 4% paraformaldehyde for 20 mins and permeabilization in ice-cold 70% MeOH in PBS for 30 mins. Cells were washed twice with phosphate-buffered saline (PBS) on a BlueWasher (BlueCatBio) then blocked with PBS containing 10% FBS for 20 mins. Blocking solution was removed with a BlueWasher and cells were stained with anti-pIRAK4 (Thr345/Ser346) (CST, #11927, 1:400) in blocking buffer with 0.05% Tween-20 for 1 h, then washed twice with PBS containing 0.05% Tween-20 on a BlueWasher, followed by staining with a Alexa 647-conjugated secondary anti-rabbit IgG antibody (CST, #4414, 1:2,000) and Hoechst 33342 (Sigma, 1:2,000) in blocking buffer with 0.05% Tween-20 for 30 mins. Finally, the cells were washed twice with PBS containing 0.05% Tween-20 and imaged on an ImageXpress Micro (Molecular Devices) with a 10× air objective using the appropriate filters. Images were analysed in Columbus (PerkinElmer) and the fluorescence intensity per cell from the secondary antibody was quantified. The quantified data were analysed in Genedata Screener 19 (Genedata AG). […] IC50 values are the geometric mean of at least 2 experiments.

The target in a further experiment is human cKit kinase (Homo sapiens (Human), UniProt P10721). Description: cKit enzyme assay (LANCE, Eurofins CEREP). Format: biochemical. Conditions: human recombinant enzyme, 50 μM ATP; geometric mean of at least n=2, * = single experiment. The method, then:
Potency of IRAK4 Inhibitor Compounds in cKit Enzyme Assay
Evaluation of the effects of the IRAK4 inhibitor compounds on the activity of the human cKit kinase quantified by measuring the phosphorylation of the substrate Ulight-TK peptide using a human recombinant enzyme and the LANCE® detection method at Eurofins CEREP, catalog item 3070, SOP no 1C768: The test compound, reference compound or water (control) are mixed with the enzyme (0.38 ng) in a buffer containing 40 mM Hepes/Tris (pH 7.4), 0.8 mM EGTA/Tris, 8 mM MgCl2, 1.6 mM DTT and 0.008% Tween 20. Thereafter, the reaction is initiated by adding 100 nM of the substrate Ulight-TK peptide and 50 μM ATP, and the mixture is incubated for 30 min at room temperature. For control basal measurements, the enzyme is omitted from the reaction mixture. Following incubation, the reaction is stopped by adding 13 mM EDTA. After 5 min, the anti-phopho-PT66 antibody labeled with europium chelate is added. After 60 more min, the fluorescence transfer is measured at lex=337 nm, lem=620 nm and lem=665 nm using a microplate reader (Envision, Perkin Elmer). The enzyme activity is determined by dividing the signal measured at 665 nm by that measured at 620 nm (ratio). The results are expressed as a percent inhibition of the control enzyme activity. The standard inhibitory reference compound is staurosporine, which is tested in each experiment at several concentrations to obtain an inhibition curve from which its IC50 value is calculated.
Data presented are the geometric mean of at least n=2, or as denoted by an*are obtained from a single experiment. […] Kinase selectivity can be a key determinant of clinical utility as off target toxicity can be reduced or eliminated.

Each structure is given as a SMILES string.

T1 sequence (Q9NWZ3 whole entry): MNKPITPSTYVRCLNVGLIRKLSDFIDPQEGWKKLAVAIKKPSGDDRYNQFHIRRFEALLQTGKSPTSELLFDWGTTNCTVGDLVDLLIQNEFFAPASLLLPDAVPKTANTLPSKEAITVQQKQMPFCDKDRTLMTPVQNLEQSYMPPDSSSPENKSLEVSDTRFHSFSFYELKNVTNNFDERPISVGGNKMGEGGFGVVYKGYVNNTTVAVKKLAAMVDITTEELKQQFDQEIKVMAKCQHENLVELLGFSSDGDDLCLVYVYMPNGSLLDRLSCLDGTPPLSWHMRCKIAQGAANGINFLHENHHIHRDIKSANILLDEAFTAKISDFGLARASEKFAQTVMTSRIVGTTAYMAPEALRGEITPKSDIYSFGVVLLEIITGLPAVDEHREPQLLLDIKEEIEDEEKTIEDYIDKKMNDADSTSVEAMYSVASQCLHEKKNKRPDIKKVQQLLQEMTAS
Sequence of human cKit kinase (P10721 26-976): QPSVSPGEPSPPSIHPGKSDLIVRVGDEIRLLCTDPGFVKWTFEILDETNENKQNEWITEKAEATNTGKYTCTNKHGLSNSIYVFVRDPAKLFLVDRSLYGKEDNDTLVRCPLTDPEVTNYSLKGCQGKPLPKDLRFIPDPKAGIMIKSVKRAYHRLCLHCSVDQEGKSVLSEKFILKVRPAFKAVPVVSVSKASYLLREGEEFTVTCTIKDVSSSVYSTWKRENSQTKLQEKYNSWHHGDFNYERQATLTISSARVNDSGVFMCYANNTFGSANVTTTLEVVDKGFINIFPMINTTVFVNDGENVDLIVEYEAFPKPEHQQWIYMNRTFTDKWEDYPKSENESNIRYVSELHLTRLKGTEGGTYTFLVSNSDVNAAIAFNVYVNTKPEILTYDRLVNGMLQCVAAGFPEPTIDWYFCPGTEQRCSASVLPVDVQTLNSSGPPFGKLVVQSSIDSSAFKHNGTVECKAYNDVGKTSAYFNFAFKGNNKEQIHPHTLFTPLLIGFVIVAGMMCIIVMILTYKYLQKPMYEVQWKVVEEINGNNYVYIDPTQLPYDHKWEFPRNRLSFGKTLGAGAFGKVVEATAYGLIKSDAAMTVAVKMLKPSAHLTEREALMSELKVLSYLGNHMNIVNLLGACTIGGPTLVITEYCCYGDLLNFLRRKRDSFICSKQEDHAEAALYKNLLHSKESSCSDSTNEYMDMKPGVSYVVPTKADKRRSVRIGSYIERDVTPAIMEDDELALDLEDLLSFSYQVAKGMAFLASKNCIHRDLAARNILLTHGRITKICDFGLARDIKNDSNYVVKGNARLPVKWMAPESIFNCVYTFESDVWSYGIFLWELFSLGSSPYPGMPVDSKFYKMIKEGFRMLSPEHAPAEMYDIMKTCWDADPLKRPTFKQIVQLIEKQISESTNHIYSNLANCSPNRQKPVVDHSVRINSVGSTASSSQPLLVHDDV

As to `COc1cc2nn([C@@H]3CCC(N(C)C(C)=O)C[C@H]3C)cc2cc1C(=O)Nc1cccn(C)c1=O` (single isomer, unassigned) [Example 2], the IC50 is 0.0107 µM at IRAK4 [1] and 0.238 µM on IRAK4 [2].
Turning to `COc1cc2nn([C@@H]3CCC(N(C)C(C)=O)C[C@H]3C)cc2cc1C(=O)Nc1cccn(C)c1=O` (single isomer, unassigned) [Example 3], the figures for the IC50 on human cKit kinase, on IRAK4 [1] and at IRAK4 [2] were 13.7 µM, 0.0007 µM and 0.021 µM, respectively.
For the compound `COc1cc2nn([C@@H]3CC[C@H](N(C)C(C)=O)C[C@@H]3C)cc2cc1C(=O)Nc1cccn(C)c1=O` (single isomer, unassigned) [Example 6], the IC50 was determined as 0.199 µM at IRAK4 [1] and 2.88 µM against IRAK4 [2].
In the case of `COc1cc2nn([C@@H]3CC[C@H](N(C)C(C)=O)C[C@@H]3C)cc2cc1C(=O)Nc1cccn(C)c1=O` (single isomer, unassigned) [Example 7], the IC50 on IRAK4 [1] amounted to 0.459 µM; against IRAK4 [2], 4.5 µM.
For `COc1cc2nn(C3CCC(c4cccnn4)CC3)cc2cc1C(=O)Nc1cccn(C)c1=O` (single isomer, unassigned) [Example 23, 6-Methoxy-N-(1-methyl-2-oxo-1,2-dihydropyridin-3-yl)-2-(4-(pyridazin-3-yl)cyclohexyl)-2H-indazole-5-carboxamide], in that order: 0.005 µM and 0.185 µM.
As for `COc1cc2nn(C3CCC(c4cccnn4)CC3)cc2cc1C(=O)Nc1cccn(C)c1=O` (single isomer, unassigned) [Example 24, 6-Methoxy-N-(1-methyl-2-oxo-1,2-dihydropyridin-3-yl)-2-(4-(pyridazin-3-yl)cyclohexyl)-2H-indazole-5-carboxamide], the half-maximal inhibitory concentration (IC50) was found to be 88.1 µM at human cKit kinase, 0.0012 µM at IRAK4 [1] and 0.017 µM against IRAK4 [2].
With `COc1cc2nn([C@H]3CC[C@H](n4ccnc4C(C)O)CC3)cc2cc1C(=O)Nc1cccn(C)c1=O` (single isomer, unassigned) [Example 28, 2-((1r,4r)-4-(2-(1-hydroxyethyl)-1H-imidazol-1-yl)cyclohexyl)-6-methoxy-N-(1-methyl-2-oxo-1,2-dihydropyridin-3-yl)-2H-indazole-5-carboxamide], the half-inhibitory concentration (IC50) was 10.6 µM on human cKit kinase, 0.0005 µM at IRAK4 [1] and 0.031 µM against IRAK4 [2].
The corresponding values for `COc1cc2nn([C@H]3CC[C@H](n4ccnc4C(C)O)CC3)cc2cc1C(=O)Nc1cccn(C)c1=O` (single isomer, unassigned) [Example 29, 2-((1r,4r)-4-(2-(1-hydroxyethyl)-1H-imidazol-1-yl)cyclohexyl)-6-methoxy-N-(1-methyl-2-oxo-1,2-dihydropyridin-3-yl)-2H-indazole-5-carboxamide] are 8.4 µM, 0.0006 µM and 0.019 µM.
The corresponding values for `COc1cc2nn([C@H]3CC[C@H](N(C)C(C)=O)CC3)cc2cc1C(=O)Nc1cccn(C)c1=O` [Example 1, 6-Methoxy-N-(1-methyl-2-oxo-1,2-dihydropyridin-3-yl)-2-((1r,4r)-4-(N-methylacetamido)cyclohexyl)-2H-indazole-5-carboxamide] are 13 µM, 0.0011 µM and 0.03 µM.
With `COc1cc2nn([C@@H]3CC[C@@H](N(C)C(C)=O)C[C@@H]3C)cc2cc1C(=O)Nc1cccn(C)c1=O` [Example 4, 6-Methoxy-N-(1-methyl-2-oxo-1,2-dihydropyridin-3-yl)-2-((1R,2S,4R)-2-methyl-4-(N-methylacetamido)cyclohexyl)-2H-indazole-5-carboxamide], the IC50 at human cKit kinase worked out at 18.3 µM; on IRAK4 [1], 0.0039 µM; on IRAK4 [2] it was 0.067 µM.
The corresponding values for `COc1cc2nn([C@H]3CC[C@H](N(C)C(C)=O)C[C@H]3C)cc2cc1C(=O)Nc1cccn(C)c1=O` [Example 5, 6-Methoxy-N-(1-methyl-2-oxo-1,2-dihydropyridin-3-yl)-2-((1S,2R,4S)-2-methyl-4-(N-methylacetamido)cyclohexyl)-2H-indazole-5-carboxamide] are > 40 µM, 0.0008 µM and 0.024 µM.
For `COc1cc2nn([C@H]3CC[C@H](N(C)C(=O)[C@@H](C)O)CC3)cc2cc1C(=O)Nc1cccn(C)c1=O` [Example 8, 2-((1R,4r)-4-((R)-2-Hydroxy-N-methylpropanamido)cyclohexyl)-6-methoxy-N-(1-methyl-2-oxo-1,2-dihydropyridin-3-yl)-2H-indazole-5-carboxamide], in that order: 7 µM, 0.0008 µM and 0.029 µM.
The corresponding values for `COc1cc2nn([C@H]3CC[C@H](N(C)C(=O)[C@@H](C)O)CC3)cc2cc1C(=O)Nc1cccn(CF)c1=O` [Example 9, N-(1-(Fluoromethyl)-2-oxo-1,2-dihydropyridin-3-yl)-2-((1R,4r)-4-((R)-2-hydroxy-N-methylpropanamido)cyclohexyl)-6-methoxy-2H-indazole-5-carboxamide] are 3.3 µM, 0.0004 µM and 0.015 µM.
Take `COc1cc2nn([C@H]3CC[C@H](N(C)C(=O)[C@@H](C)O)CC3)cc2cc1C(=O)Nc1cccn(-c2cn[nH]c2)c1=O` [Example 14, 2-((1R,4r)-4-((R)-2-Hydroxy-N-methylpropanamido)cyclohexyl)-6-methoxy-N-(2-oxo-1-(1H-pyrazol-4-yl)-1,2-dihydropyridin-3-yl)-2H-indazole-5-carboxamide]: the IC50 on IRAK4 [1] amounted to 0.0003 µM; against IRAK4 [2], 0.015 µM.
For `COc1cc2nn([C@H]3CC[C@]4(CC3)COC(=O)N4C)cc2cc1C(=O)Nc1cccn(C)c1=O` [Example 21, 6-Methoxy-N-(1-methyl-2-oxo-1,2-dihydropyridin-3-yl)-2-((5r,8r)-1-methyl-2-oxo-3-oxa-1-azaspiro[4.5]decan-8-yl)-2H-indazole-5-carboxamide], in that order: 0.0004 µM and 0.02 µM.
